# Source: patent US8338624B2, “Isoflavone derivatives and uses thereof” (Yeda Research and Development Co., Ltd., priority 2007, dated 2012)
# Residues, ends and D or L forms follow the SMILES beside them. *: point of attachment. Cbz = O=C(OCc1ccccc1)*; CH2F = FC*
# Key:
# [1] = tested on: 320DM human colon cancer cells; experiment: DNA synthesis by [3H]-thymidine incorporation, 320DM cells; format: cell-based; conditions: for effect on DNA synthesis / growth: 30 to 3000 nM
# Protocol: (§1) Cells were cultured in MEM supplemented with 10% FCS and antibiotics. Cells were grown to subconfluence and then treated with various hormones or agents as described by Somjen et al. (Somjen et al., 1998). The cells were characterized in terms of expression of mRNAs for estrogen […] by real time PCR, and the results are summarized in Table 1. N87, 320DM and H295R cells expressed mRNAs for both ERs. The ratio of ERα to ERβ was 1:8.5, 1:30 and 1:1.8 in N87, 320DM and H295R cells, respectively. Ovarian A2780 and prostate C4-24 cells expressed mainly mRNA for ERβ, and the ratio of ERβ to ERα was 300:1 and 70:1, respectively. MLS ovarian cells expressed mRNA only for ERβ. The ratio of ERα to ERβ in T47D cells has been reported to be 9:1.
# [^3H]-Thymidine incorporation into DNA was used for the assessment of the various effects (proliferative or inhibitory) of various isoflavones, isoflavone derivatives and known cytotoxic drugs in the above-mentioned cells. Cells were grown until subconfluence using conditions described in Somjen et al. […] At the end of incubation, [^3H]-thymidine was added for two hours. Cells were then treated with 10% ice-cold trichloroacetic (TCA) for 5 min and washed twice with 5% TCA and then with cold ethanol. The cellular layer was dissolved in 0.3 ml of 0.3 M NaOH, aliquots were taken for counting radioactivity, and [^3H]-thymidine incorporation into DNA was calculated.
# [2] = tested on: human prostate C4-2B cancer cells; experiment: DNA synthesis by [3H]-thymidine incorporation, C4-2B cells; format: cell-based
# Protocol: as §1
# (§2) [^3H]-Thymidine incorporation into DNA was used for the assessment of the various effects (proliferative or inhibitory) of various isoflavones, isoflavone derivatives and known cytotoxic drugs in the above-mentioned cells. Cells were grown until subconfluence using conditions described in Somjen et al. (Somjen et al., 1998) and then treated with various agents for 24 or 48 h as indicated. At the end of incubation, [^3H]-thymidine was added for two hours. Cells were then treated with 10% ice-cold trichloroacetic (TCA) for 5 min and washed twice with 5% TCA and then with cold ethanol. The cellular layer was dissolved in 0.3 ml of 0.3 M NaOH, aliquots were taken for counting radioactivity, and [^3H]-thymidine incorporation into DNA was calculated.
# [3] = tested on: T47D mammary cancer cells; experiment: DNA synthesis by [3H]-thymidine incorporation, T47D cells; format: cell-based, human; conditions: at 10 μM
# Protocol: as §1, §2
# [4] = tested on: H295R adrenocarcinoma cells; experiment: DNA synthesis by [3H]-thymidine incorporation, H295R cells; format: cell-based, human; set-up: stimulation of DNA synthesis: concentration or dose not given beside the values; conditions: for inhibition at 3 µM: Homo sapiens, NCI-H295R, read-out: inhibition of DNA synthesis / growth
# Protocol: as §1, §2
# [5] = tested on: N87 gastric carcinoma cells; experiment: DNA synthesis by [3H]-thymidine incorporation, N87 cells; format: cell-based, human
# Protocol: as §1, §2
# [6] = tested on: Human umbilical vascular smooth muscle cells (VSMC); experiment: DNA synthesis by [3H]-thymidine incorporation, normal VSMC; format: cell-based; conditions: for effect on DNA synthesis: at 300 nM
# Protocol: Human umbilical vascular smooth muscle cells (VSMC) sensitive to estrogen, were grown in culture as described above, and used only at passages 1-3, when expression of smooth muscle actin was clearly demonstrable (Somjen et al. 2000). The ratio of the expression of mRNA for ERα to ERβ was 2.7:1.
# as §2
# MLS ovarian cancer cells = experiment: DNA synthesis by [3H]-thymidine incorporation, MLS cells; format: cell-based, human
# Protocol: as §1, §2
# [7] = tested on: A2780 ovarian cancer cells; experiment: DNA synthesis by [3H]-thymidine incorporation, A2780 cells; format: cell-based, human; conditions: for inhibition at 25 µM: read-out: inhibition of cell proliferation
# Protocol: as §1, §2
# ERβ compared to ERα = conditions: transfected cells; cited from earlier work
# MLS ovarian xenografts = MLS ovarian xenografts in nude mice; format: in vivo; conditions: daunomycin iv 200 μg/mouse every other day
# Excerpt: Female CD1 nude mice (8-week old, ˜30 g) were housed and handled with free access to food and water in the animal facility according to the guidelines (1996) of the Institutional Animal Care and Use Committee of the Weizmann Institute of Science, Rehovot, Israel.
# Thirty female nude mice (8 weeks old) were inoculated sub-cutaneously (sc) with MLS ovarian carcinoma cells (1.5×10^6/mouse). Ten days later, when the tumors were palpable, the mice were randomly divided into 3 groups (8-10 mice/group). The mice in each group were iv injected every other day either with a vehicle (Neowater, a solubilization enhancer, 0.1 ml), daunomycin dissolved in Neowater (200 μg/mouse in 0.1 ml vehicle, total dose during treatment 1 mg/mouse), or compound 9 dissolved in Neowater (400 μg/mouse in 0.1 ml vehicle, total dose during treatment 2 mg/mouse). During treatment, body weight was recorded to monitor toxicity of the treatment, and the tumors were measured with an external caliper. Tumor volume was calculated using the formula length×width×height×π/6. Statistical significance was assessed using student's t test, and differences were considered significant at p<0.05.
# [8] = apoptosis inhibitor at 25 μM alone
# [9] = ICI 182780 (1.1 μM) + E2 0.3 μM
# [10] = estradiol 30 nM + 1.1 μM ICI 182780
smiles,measurement,setting,value
"O=C(O)CCCc1oc2cc(O)cc(O)c2c(=O)c1-c1ccc(O)cc1 [Compound 5, 2-(3-Carboxypropyl)-5,7,4′-trihydroxyisoflavone]",effect on DNA synthesis / growth,[1],significantly stimulated [^3H]-thymidine incorporation into DNA
same,effect on DNA synthesis,[2]; at 300 nM,stimulated DNA synthesis
"COc1ccc(-c2coc3cc(O)cc(O)c3c2=O)cc1 [Compound 1, Biochanin A, reference compound]",effect on DNA synthesis / growth,[1],had no effect on growth
same,effect on DNA synthesis,[2]; at 3 μM,stimulated DNA synthesis significantly
same,effect on DNA synthesis,[3],stimulated DNA synthesis
same,effect on DNA synthesis,[4]; at 3 μM,had no effect on DNA synthesis
same,effect on DNA synthesis,[5]; at 3 μM,had no effect
same,effect on DNA synthesis,[6],stimulated DNA synthesis
"COc1ccc(-c2c(CCCC(=O)O)oc3cc(O)cc(O)c3c2=O)cc1 [Compound 4, 2-(3-carboxypropyl)-7,5-dihydroxy-4′-methoxyisoflavone]",effect on DNA synthesis / growth,[1],stimulated the DNA synthesis
same,effect on DNA synthesis,[2]; at 300 nM,stimulated DNA synthesis
same,effect on DNA synthesis,[3],had no effect
same,stimulation of DNA synthesis,[4]; concentration not given,273%
same,stimulation of DNA synthesis,[5]; at 300 nM,50%
same,effect on DNA synthesis,[6],stimulated DNA synthesis
"C[C@]12CC[C@@H]3c4ccc(O)cc4CC[C@H]3[C@@H]1CC[C@@H]2O [Compound E2, estradiol 17β, reference compound]","DNA synthesis, ratio experimental/control (E/C)",MLS ovarian cancer cells; E2 30 nM alone (Table 3),2.35 ± 0.06
same,"DNA synthesis, ratio experimental/control (E/C)",MLS ovarian cancer cells; E2 0.3 μM alone,1.70 ± 0.15
same,"DNA synthesis, ratio experimental/control (E/C)",MLS ovarian cancer cells; E2 at 30 nM (Table 2),1.39 ± 0.03
same,activity at 0.03 µM,"MLS ovarian cancer cells; Homo sapiens, estradiol 30 nM, read-out: DNA synthesis (% of control)",235%
same,activity at 0.3 µM,"MLS ovarian cancer cells; Homo sapiens, estradiol 0.3 μM, read-out: DNA synthesis (% of control)",187%
same,"DNA synthesis, ratio experimental/control (E/C)",[1]; E2 30 nM alone (Table 3),2.06 ± 0.09
same,"DNA synthesis, ratio experimental/control (E/C)",[1]; E2 0.3 μM alone,1.87 ± 0.18
same,"DNA synthesis, ratio experimental/control (E/C)",[1]; E2 at 30 nM (Table 2),1.64 ± 0.13
same,activity at 0.03 µM,"[1]; Homo sapiens, estradiol 30 nM, read-out: [3H]-thymidine incorporation (% of control)",206%
same,"DNA synthesis, ratio experimental/control (E/C)",[2]; E2 at 30 nM,2.10 ± 0.10
same,"DNA synthesis, ratio experimental/control (E/C)",[4]; E2 at 30 nM,2.10 + .10
same,"DNA synthesis, ratio experimental/control (E/C)",[6]; E2 at 30 nM,0.55 ± 0.12
same,"DNA synthesis, ratio experimental/control (E/C)",[7]; E2 at 30 nM,1.42 ± 0.10
"N.N.O=C([O-])C1(C(=O)[O-])CCC1.[Pt+2] [carboplatin, reference compound]",inhibition of DNA synthesis / growth,[7]; at 3 μM,57%
"COc1ccc(-c2c(CCCC(=O)NCCCCCCNC(=O)OC(C)(C)C)oc3cc(O)cc(O)c3c2=O)cc1 [Compound 7, 2-[3-carboxy-(6-tert-butoxycarbonylamino)-hexylamino-propyl]-7,5-dihydroxy-4′-methoxyisoflavone]","DNA synthesis, ratio experimental/control (E/C)",MLS ovarian cancer cells; compound at 3 μM,0.05 ± 0.23
same,effect on DNA synthesis / growth,[1],inhibited significantly DNA synthesis
same,"DNA synthesis, ratio experimental/control (E/C)",[1]; compound at 3 μM,0.22 ± 0.15
same,inhibition at 0.03 µM,"[2]; Homo sapiens, at 30 nM",10%
same,inhibition at 0.3 µM,"[2]; Homo sapiens, at 300 nM",50%
same,"DNA synthesis, ratio experimental/control (E/C)",[2]; compound at 0.3 μM,0.41 ± 0.27
same,inhibition at 3 µM,[4]; at 3 μM,40 to 45%
same,"DNA synthesis, ratio experimental/control (E/C)",[4]; compound at 3 μM,0.55 ± 0.03
same,inhibition at 0.3 µM,"[5]; Homo sapiens, at 300 nM, read-out: inhibition of cell growth",40%
same,inhibition at 3.3 µM,"[6]; Homo sapiens, at 3.3 μM",26%
same,"DNA synthesis, ratio experimental/control (E/C)",[6]; compound at 3 μM,0.74 ± 0.05
same,inhibition at 3 µM,"[7]; Homo sapiens, at 3 μM, read-out: inhibition of DNA synthesis / growth",35%
same,"DNA synthesis, ratio experimental/control (E/C)",[7]; compound at 3 μM,0.64 ± 0.16
"COC(=O)C[C@H](NC(=O)[C@H](C)NC(=O)[C@@H](NC(=O)OCc1ccccc1)C(C)C)C(=O)CF [Z-VADFK, Z-VAD-FMK Me ester, reference compound] (Cbz-Val-Ala-Asp(OMe)-CH2F)","DNA synthesis, ratio experimental/control (E/C)",MLS ovarian cancer cells; Z-VADFK 25 μM alone,1.06 ± 0.1
same,effect on DNA synthesis,MLS ovarian cancer cells; [8],had no effect on DNA synthesis
same,"DNA synthesis, ratio experimental/control (E/C)",[1]; Z-VADFK 25 μM alone,1.11 ± 0.08
same,effect on DNA synthesis,[1]; [8],had no effect on DNA synthesis
"C[C@]12CC[C@@H]3c4ccc(O)cc4C[C@@H](CCCCCCCCC[S+]([O-])CCCC(F)(F)C(F)(F)F)[C@H]3[C@@H]1CC[C@@H]2O (stereo partly shown) [ICI 182780, reference compound]","DNA synthesis, ratio experimental/control (E/C)",MLS ovarian cancer cells; ICI 182780 1.1 μM alone,0.52 ± 0.12
same,"DNA synthesis, ratio experimental/control (E/C)",MLS ovarian cancer cells; ICI 182780 (1.1 μM) + E2 30 nM,0.53 ± 0.11
same,"DNA synthesis, ratio experimental/control (E/C)",MLS ovarian cancer cells; [9],0.95 ± 0.08
same,DNA synthesis (% of control),MLS ovarian cancer cells; [10],53%
same,DNA synthesis (% of control),MLS ovarian cancer cells; estradiol 0.3 μM + 1.1 μM ICI 182780,95%
same,"DNA synthesis, ratio experimental/control (E/C)",[1]; ICI 182780 1.1 μM alone,0.63 ± 0.08
same,"DNA synthesis, ratio experimental/control (E/C)",[1]; ICI 182780 (1.1 μM) + E2 30 nM,0.63 ± 0.08
same,"DNA synthesis, ratio experimental/control (E/C)",[1]; [9],0.92 ± 0.18
same,DNA synthesis (% of control),[1]; [10],63%
same,DNA synthesis (% of control),[1]; estradiol 300 nM + 1.1 μM ICI 182780,92%
"O=c1c(-c2ccc(O)cc2)coc2cc(O)ccc12 [Compound 3, Daidzein, reference compound]",effect on DNA synthesis,[2]; at 3 μM,stimulated DNA synthesis significantly
same,effect on DNA synthesis,[3],stimulated DNA synthesis
same,sensitivity for activating transcription via ERβ compared to ERα,ERβ compared to ERα,100 fold
same,effect on DNA synthesis,[6],stimulated DNA synthesis
same,inhibition at 25 µM,[7]; Homo sapiens,30 to 40%
"O=c1c(-c2ccc(O)cc2)coc2cc(O)cc(O)c12 [Compound 2, Genistein, reference compound]",effect on [3H]-thymidine incorporation into DNA,[1]; 30 to 300 nM,significantly stimulated [^3H]-thymidine incorporation into DNA
same,effect on DNA synthesis,[2]; at 3 μM,stimulated DNA synthesis significantly
same,sensitivity for activating transcription via ERβ compared to ERα,ERβ compared to ERα,100 fold
same,inhibition at 25 µM,[7]; Homo sapiens,30 to 40%
"COc1cccc2c1C(=O)c1c(O)c3c(c(O)c1C2=O)C[C@@](O)(C(C)=O)C[C@@H]3O[C@H]1C[C@H](N)[C@H](O)[C@H](C)O1 [daunomycin, reference compound]",reduction in mean body weight,MLS ovarian xenografts,15%
same,deaths caused,MLS ovarian xenografts; 8-10 mice/group,2 mice
same,inhibition at 3 µM,[4]; at 3 μM,75%
"O=C(O)COc1ccc2c(=O)c(-c3ccc(O)cc3)coc2c1 [Compound 6, 7-(O)-Carboxymethyl daidzein, reference compound]",effect on DNA synthesis,[2]; at 300 nM,stimulated DNA synthesis
same,effect on DNA synthesis,[3],stimulated DNA synthesis
same,effect on DNA synthesis,[6],stimulated DNA synthesis
